Values of other authors, collected in patent US7423042B2, “Compounds” (Glaxo Group Limited, priority 2005, dated 2008).

Tests used:
[1] = tested on: synthesis of pro-inflammatory proteins including IL-6, IL-8, GM-CSF, RANTES and COX-2; settings: a number of different cell types
[2] = tested on: TGF-β-induced increases in fibronectin and thrombospondin; settings: Laping et al., 2002

SMILES	decreasing the synthesis of pro-inflammatory proteins (IL-6, IL-8, GM-CSF, RANTES, COX-2) [1]	inhibition of TGF-β-induced increases in fibronectin and thrombospondin [2]
C[S+]([O-])c1ccc(-c2nc(-c3ccncc3)c(-c3ccc(F)cc3)[nH]2)cc1 (stereo not drawn) [SB-203580]	effective	
COc1nccc(-c2c(-c3ccc(F)cc3)ncn2C2CCNCC2)n1 [SB-242235]		inhibited
Fc1ccc(-c2nc3n(c2-c2ccncc2)CCS3)cc1 [SK&F 86002]	effective	
